Data published in ChEMBL document CHEMBL1149416, “Design, synthesis, and biological evaluation of BODIPY-erythromycin probes for bacterial ribosomes” (Bioorg Med Chem Lett, 2006).

Key:
Escherichia coli [1] = assay: Binding affinity to 70S bacterial ribosome isolated from Escherichia coli; assay type: functional
Escherichia coli [2] = assay: Inhibition of ribosome function in a coupled transcription and translational assay using Escherichia coli S30 extracts; assay type: functional, organism-based

IC50 (Escherichia coli [2]) | Structure (SMILES) | Kd (Escherichia coli [1])
1500 nM | CC[C@H]1OC(=O)[C@H](C)[C@@H](O[C@H]2C[C@@](C)(OC)[C@@H](O)[C@H](C)O2)[C@H](C)[C@@H](O[C@@H]2O[C@H](C)C[C@H](N(C)C)[C@H]2O)[C@](C)(O)C[C@@H](C)[C@H](NC(=O)CCC2=CC3=Cc4c(C)cc(C)n4[B-](F)(F)[N+]3=C2)[C@H](C)[C@@H](O)[C@]1(C)O | 30 nM
550 nM | CC[C@H]1OC(=O)[C@H](C)[C@@H](O[C@H]2C[C@@](C)(OC)[C@@H](OC(=O)NCCNC(=O)CCC3=CC4=Cc5c(C)cc(C)n5[B-](F)(F)[N+]4=C3)[C@H](C)O2)[C@H](C)[C@@H](O[C@@H]2O[C@H](C)C[C@H](N(C)C)[C@H]2O)[C@](C)(O)C[C@@H](C)[C@H](NC(=O)OCc2ccccc2)[C@H](C)[C@@H](O)[C@]1(C)O | 1.5 nM
80 nM | CC[C@H]1OC(=O)[C@H](C)[C@@H](O[C@H]2C[C@@](C)(OC)[C@@H](O)[C@H](C)O2)[C@H](C)[C@@H](O[C@@H]2O[C@H](C)C[C@H](N(C)C)[C@H]2O)[C@](C)(O)C[C@@H](C)C(=O)[C@H](C)[C@@H](O)[C@]1(C)O [ERYTHROMYCIN] | –
160 nM | CC[C@H]1OC(=O)[C@H](C)[C@@H](O[C@H]2C[C@@](C)(OC)[C@@H](OC(=O)NCCNC(=O)CCC3=CC4=Cc5c(C)cc(C)n5[B-](F)(F)[N+]4=C3)[C@H](C)O2)[C@H](C)[C@@H](O[C@@H]2O[C@H](C)C[C@H](N(C)C)[C@H]2O)[C@](C)(OC)C[C@@H](C)C(=O)[C@H](C)[C@@H](O)[C@]1(C)O | < 0.5 nM
